pIC50: −log10 of the molar value. Values joined by “and” are separate entries in the source; they are usually repeats but may differ in a detail not shown here. Equal values may be shown once.
How the values were obtained:
[1] = tested on: MYC target genes in MM.1S cells; test: Gene expression profile by RNA-seq with gene set enrichment analysis in MM.1S cells; format: cell-based, human; details: RNA-seq after treatment in MM.1S cells
From the text: To clarify the molecular mechanism whereby KDM5A mediates MM cell growth, the gene expression profile using RNA-seq after the treatment with pck82 in MM.1S cells was examined.

luciferized molp8 cells = test: In vivo mouse study, bioluminescence imaging (BLI) of luciferized molp8 cells; design: species or system Mice; reference not given here; details: one individual mouse (cage, EP)
Description: Mice were injected intravenously with luciferized molp8 cells. Half million cells per mice. After 1 week, the tumor was observed using bioluminescence imaging (BLI). The normalized total flux was measured over 17 days (FIG. 12; Table 5) Mice were randomized into control and treatment. Treatment lasted for 21 days. Animals with 15% weight loss was terminated.

H3K4me3 mark = test: ChIP-seq analysis of H3K4me3 mark; format: cell-based
KDM5B = KDM5B (Homo sapiens, UniProt Q9UGL1); test: KDM5B alphascreen activity assay; format: biochemical; details: Table 1, KDM5B alphascreen activity assay
KDM5B, sequence (Q9UGL1 whole entry): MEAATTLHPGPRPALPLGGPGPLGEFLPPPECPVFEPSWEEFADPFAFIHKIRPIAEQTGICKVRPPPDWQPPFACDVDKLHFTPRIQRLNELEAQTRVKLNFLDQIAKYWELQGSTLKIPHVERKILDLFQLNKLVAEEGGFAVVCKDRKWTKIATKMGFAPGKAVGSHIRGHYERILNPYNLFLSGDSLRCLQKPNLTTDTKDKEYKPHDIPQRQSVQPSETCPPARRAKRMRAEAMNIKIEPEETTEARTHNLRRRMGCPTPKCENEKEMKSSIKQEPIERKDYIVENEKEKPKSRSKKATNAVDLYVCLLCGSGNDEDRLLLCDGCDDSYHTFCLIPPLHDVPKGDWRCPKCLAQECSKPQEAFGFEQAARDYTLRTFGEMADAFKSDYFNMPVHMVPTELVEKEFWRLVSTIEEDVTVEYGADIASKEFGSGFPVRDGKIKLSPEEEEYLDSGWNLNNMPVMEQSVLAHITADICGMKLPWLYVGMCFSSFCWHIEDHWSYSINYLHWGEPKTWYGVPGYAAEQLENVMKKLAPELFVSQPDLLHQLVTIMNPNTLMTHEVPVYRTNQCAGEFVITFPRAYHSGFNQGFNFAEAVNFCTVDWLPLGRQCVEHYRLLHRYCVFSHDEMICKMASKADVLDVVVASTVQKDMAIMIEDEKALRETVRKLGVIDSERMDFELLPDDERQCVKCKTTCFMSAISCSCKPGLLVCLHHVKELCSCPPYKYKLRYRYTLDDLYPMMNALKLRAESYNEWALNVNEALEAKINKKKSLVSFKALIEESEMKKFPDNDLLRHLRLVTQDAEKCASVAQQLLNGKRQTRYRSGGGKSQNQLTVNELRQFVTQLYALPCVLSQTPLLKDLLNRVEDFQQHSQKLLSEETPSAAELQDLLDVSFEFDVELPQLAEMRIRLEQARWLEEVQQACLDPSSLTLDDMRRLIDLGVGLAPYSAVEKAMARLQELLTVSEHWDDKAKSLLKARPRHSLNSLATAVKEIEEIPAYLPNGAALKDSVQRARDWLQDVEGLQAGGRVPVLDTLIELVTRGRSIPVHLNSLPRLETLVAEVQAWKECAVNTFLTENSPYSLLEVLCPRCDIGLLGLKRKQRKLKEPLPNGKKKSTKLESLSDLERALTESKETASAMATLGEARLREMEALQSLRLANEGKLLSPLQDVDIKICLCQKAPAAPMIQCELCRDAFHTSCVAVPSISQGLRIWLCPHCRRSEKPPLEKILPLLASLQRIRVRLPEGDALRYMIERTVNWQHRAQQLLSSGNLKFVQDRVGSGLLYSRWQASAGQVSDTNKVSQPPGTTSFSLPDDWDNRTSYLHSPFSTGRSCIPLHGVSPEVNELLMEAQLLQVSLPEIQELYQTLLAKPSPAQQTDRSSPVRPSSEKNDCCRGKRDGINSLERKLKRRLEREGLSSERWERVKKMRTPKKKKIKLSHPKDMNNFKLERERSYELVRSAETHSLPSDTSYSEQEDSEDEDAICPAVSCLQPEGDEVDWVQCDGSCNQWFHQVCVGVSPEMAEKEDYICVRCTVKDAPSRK
Description: All subsequent steps were carried out in assay buffer (50 mM HEPES, pH 7.5, 0.1% (wt/vol) BSA and 0.01% (vol/vol) Tween-20). […] The final concentration of DMSO was 1%. […] Data were normalized to the (no-enzyme) control, and the IC50 values were determined via nonlinear regression curve fit using GraphPad Prism 7.

Row | SMILES | expression of MYC target genes (gene set enrichment analysis) [1] | Normalized total flux from BLI imaging (luciferized molp8 cells; Day 0) | Normalized total flux from BLI imaging (luciferized molp8 cells; Day 3) | Normalized total flux from BLI imaging (luciferized molp8 cells; Day 7) | Normalized total flux from BLI imaging (luciferized molp8 cells; Day 10) | Normalized total flux from BLI imaging (luciferized molp8 cells; Day 14) | Normalized total flux from BLI imaging (luciferized molp8 cells; Day 17) | Normalized total flux from BLI imaging (luciferized molp8 cells; Day 21) | H3K4me3 mark, global (H3K4me3 mark; ChIP-seq after treatment) | H3K4me3 mark at the loci of MYC and its targets (H3K4me3 mark; ChIP-seq, targets whose expression is down-regulated after treatment) | pIC50 (KDM5B)
1 | CCN(CCN(C)C)C(=O)CNCc1cc(C(=O)Oc2ccc(OC(C)C)cc2OC(C)C)ccn1 [PCK82] | decreased expression of MYC target genes | 1 | 3.764 and 4.5 and 4.255 and 3.625 and 2.035 and 2.296 and 3.238 and 0.2149 and 0.3339 | 0.5646 and 9.722 and 8.546 and 8.656 and 13.51 and 1.677 and 8.169 and 0.2301 and 39.37 | 6.63 and 19.33 and 0.422 and 44.375 and 23.38 and 25.97 and 24.97 and 1.029 and 6.22 | 191.7 and 165.6 and 135.1 and 93.75 and 380.3 and 314.2 and 275.1 and 75.66 and 5.654 | 306.3 and 4.861 and 358.2 and 465.625 and 258.8 and 133.2 and 277.2 and 359 and 565.6 | 45 and 3.404 and 435.5 and 58.66 and 1309 and 1224 and 847.4 and 121.6 and 1078 | globally increased H3K4me3 mark | did not increase this mark | 
2 | CC(C)c1c(-c2ccccc2)[nH]c2c(C#N)cnn2c1=O [CPI455] |  |  |  |  |  |  |  |  |  |  | 5.10

Source: US20230382865A1, “HISTONE DEMETHYLASE 5 INHIBITORS AND USES THEREOF” (DANA-FARBER CANCER INSTITUTE, INC., priority 2018, published 2023)
